Assay [1] has as its target Serine/threonine-protein kinase B-raf [V600E] (Homo sapiens, UniProt P15056, V600E). Briefly: Not found.
The target of assay [2] is RAF proto-oncogene serine/threonine-protein kinase [Y340D,Y341D] (Homo sapiens, UniProt P04049, Y340D/Y341D). As to the kind of experiment: Not found.
Excerpt: Not found

Sequence of Serine/threonine-protein kinase B-raf [V600E] (P15056 2-766 V600E limits assumed): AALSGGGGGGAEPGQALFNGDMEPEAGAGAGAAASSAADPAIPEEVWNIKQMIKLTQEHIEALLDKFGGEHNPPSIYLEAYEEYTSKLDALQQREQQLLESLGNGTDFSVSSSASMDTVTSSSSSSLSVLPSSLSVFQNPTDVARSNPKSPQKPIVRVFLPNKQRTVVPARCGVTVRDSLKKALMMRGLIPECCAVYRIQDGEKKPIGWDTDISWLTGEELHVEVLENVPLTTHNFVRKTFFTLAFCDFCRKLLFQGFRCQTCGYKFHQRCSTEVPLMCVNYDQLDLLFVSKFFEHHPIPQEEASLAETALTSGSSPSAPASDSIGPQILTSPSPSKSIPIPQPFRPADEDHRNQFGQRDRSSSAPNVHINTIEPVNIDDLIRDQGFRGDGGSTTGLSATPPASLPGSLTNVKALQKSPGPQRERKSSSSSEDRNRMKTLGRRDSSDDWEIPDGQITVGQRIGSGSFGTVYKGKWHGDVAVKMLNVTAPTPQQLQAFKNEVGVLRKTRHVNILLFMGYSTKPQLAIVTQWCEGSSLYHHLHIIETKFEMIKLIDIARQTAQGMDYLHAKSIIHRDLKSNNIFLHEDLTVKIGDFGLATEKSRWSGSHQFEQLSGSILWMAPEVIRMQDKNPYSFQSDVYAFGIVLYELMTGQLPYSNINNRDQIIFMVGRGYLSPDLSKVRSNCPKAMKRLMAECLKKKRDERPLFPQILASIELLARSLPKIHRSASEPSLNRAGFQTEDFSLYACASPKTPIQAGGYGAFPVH
Sequence of RAF proto-oncogene serine/threonine-protein kinase [Y340D,Y341D] (P04049 whole entry Y340D/Y341D): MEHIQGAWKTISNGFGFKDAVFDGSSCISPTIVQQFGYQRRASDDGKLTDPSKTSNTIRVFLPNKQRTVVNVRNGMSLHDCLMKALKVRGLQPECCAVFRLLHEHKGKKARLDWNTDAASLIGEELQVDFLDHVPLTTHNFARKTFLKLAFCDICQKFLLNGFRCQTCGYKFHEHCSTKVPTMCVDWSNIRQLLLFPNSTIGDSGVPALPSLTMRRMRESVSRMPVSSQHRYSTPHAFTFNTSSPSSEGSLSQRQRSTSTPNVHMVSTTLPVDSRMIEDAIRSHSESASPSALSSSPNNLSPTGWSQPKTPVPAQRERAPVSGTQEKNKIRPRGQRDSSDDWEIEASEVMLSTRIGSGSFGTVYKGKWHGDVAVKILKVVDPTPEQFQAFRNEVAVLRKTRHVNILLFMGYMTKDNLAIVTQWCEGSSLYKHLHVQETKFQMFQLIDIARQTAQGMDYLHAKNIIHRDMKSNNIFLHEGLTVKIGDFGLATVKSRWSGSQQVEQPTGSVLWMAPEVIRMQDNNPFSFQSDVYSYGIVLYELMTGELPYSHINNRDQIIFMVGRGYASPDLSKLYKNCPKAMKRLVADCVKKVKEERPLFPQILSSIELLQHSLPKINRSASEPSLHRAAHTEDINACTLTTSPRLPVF

What is called IC50 is the concentration that inhibits the measured activity by half. Low readings indicate greater potency in that assay, high ones weaker potency in that assay. In turn, `CN(C)[C@H]1CCN(Cc2ccc(C(=O)N[C@@H]3[C@H]4Oc5ccc(Oc6ccnc7c6CCC(=O)N7)cc5[C@@H]34)cc2C(F)(F)F)C1` [US9670231, 1.9] registered an IC50 in assay [1] of 17 nM. The same measure, in the same setting: the figure for `CN(C)[C@@H]1CCN(Cc2ccc(C(=O)N[C@@H]3[C@H]4Oc5ccc(Oc6ccnc7c6CCC(=O)N7)cc5[C@@H]34)cc2C(F)(F)F)C1` [US9670231, 1.10] is 14 nM. In assay [2], `O=C1CCc2c(Oc3ccc4c(c3)[C@H]3[C@H](NC(=O)c5ccc(CN6CCC[C@H](O)C6)c(C(F)(F)F)c5)[C@H]3O4)ccnc2N1` [US9670231, 1.15] had an IC50 of 6.2 nM. Regarding `O=C1CCc2c(Oc3ccc4c(c3)[C@H]3[C@H](NC(=O)c5ccc(CN6CCN(CCO)CC6)c(C(F)(F)F)c5)[C@H]3O4)ccnc2N1` [US9670231, 1.17], in assay [1], the IC50 turned out to be 10.4 nM. As to `CN(C)C1CCN(Cc2ccc(C(=O)N[C@@H]3[C@H]4Oc5ccc(Oc6ccnc7c6CCC(=O)N7)cc5[C@@H]34)cc2C(F)(F)F)CC1` [US9670231, 1.20], the IC50 in assay [1] worked out at 11 nM; in assay [2], 2.1 nM.

Consider `CN1CCN(CCOc2ccc(C(=O)N[C@@H]3[C@H]4Oc5ccc(Oc6ccnc7c6CCC(=O)N7)cc5[C@@H]34)cc2C(F)(F)F)CC1` [US9670231, 1.52], for which the results for the IC50 in assay [1] and in assay [2] were 14 nM and 2.5 nM, respectively. In turn, `CN1CCN(Cc2ccc(C(=O)N[C@@H]3[C@H]4Oc5ccc(Oc6ccnc7c6COC(=O)N7)cc5[C@@H]34)cc2C(F)(F)F)CC1` [US9670231, 2.2] came in with a half-maximal inhibitory concentration (IC50) in assay [1] of 11 nM.

The values are drawn from BindingDB's records for patent US9670231 (BeiGene, Ltd, 2017).
